From PubChem BioAssay AID248 (DTP/NCI, 2004)
Inconclusive results and toxic doses are left out.

Tested on: L1210 leukemia ip in BDF1 mice, survival T/C
Assay: NCI In Vivo Anticancer Drug Screen. Data for tumor model L1210 Leukemia (intraperitoneal) in B6D2F1 (BDF1) mice
Settings: endpoint: mean survival time, higher = longer survival
Summary of the method: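 Tumor cells were implanted, animals were treated, and survival was followed. The result divides the treated measurement by the vehicle-control measurement.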

[1] = dose: 50.0 mg/kg/injection, schedule: Q01DX009 (ip), vehicle: saline
[2] = dose: 50.0 mg/kg/injection, schedule: Q01DX009 (ip), vehicle: Klucel (hydroxypropylcellulose) (HPC)
[3] = dose: 100.0 mg/kg/injection, schedule: Q01DX009 (ip), vehicle: Klucel (hydroxypropylcellulose) (HPC)
[4] = dose: 200.0 mg/kg/injection, schedule: Q01DX009 (ip), vehicle: Klucel (hydroxypropylcellulose) (HPC)
[5] = dose: 100.0 mg/kg/injection, schedule: Q04DX003 (ip), vehicle: Klucel (hydroxypropylcellulose) (HPC)
[6] = dose: 100.0 mg/kg/injection, schedule: Q01DX009 (ip), vehicle: saline
[7] = dose: 200.0 mg/kg/injection, schedule: Q01DX009 (ip), vehicle: saline
[8] = dose: 100.0 mg/kg/injection, schedule: Q04DX003 (ip), vehicle: saline with Tween-80
[9] = dose: 100.0 mg/kg/injection, schedule: Q04DX002 (ip), vehicle: Klucel (hydroxypropylcellulose) (HPC)
[10] = dose: 200.0 mg/kg/injection, schedule: Q04DX002 (ip), vehicle: Klucel (hydroxypropylcellulose) (HPC)
[11] = dose: 400.0 mg/kg/injection, schedule: Q04DX002 (ip), vehicle: Klucel (hydroxypropylcellulose) (HPC)

C1OC1CN1CCN(CC2CO2)CC1 (configuration not stated)
T/C (dose: 1.2 mg/kg/injection, schedule: Q01DX009 (ip), vehicle: saline): 101 % of control
T/C (dose: 1.8 mg/kg/injection, schedule: Q01DX009 (ip), vehicle: saline): 117 % of control
T/C (dose: 2.0 mg/kg/injection, schedule: Q03HX008 (ip), vehicle: saline): 117 % of control
T/C (dose: 2.0 mg/kg/injection, schedule: Q03HX016 (ip), vehicle: saline): 102 % of control
T/C (dose: 2.0 mg/kg/injection, schedule: Q03HX024 (ip), vehicle: saline): 121 % of control
T/C (dose: 3.5 mg/kg/injection, schedule: Q01DX009 (ip), vehicle: saline): 118 % of control
T/C (dose: 4.0 mg/kg/injection, schedule: Q03HX008 (ip), vehicle: saline): 114 % of control
T/C (dose: 4.0 mg/kg/injection, schedule: Q03HX016 (ip), vehicle: saline): 114 % of control
T/C (dose: 6.25 mg/kg/injection, schedule: Q01DX009 (ip), vehicle: saline): 121 % of control
T/C (dose: 8.0 mg/kg/injection, schedule: Q01DX009 (sc), vehicle: saline): 101 % of control
T/C (dose: 8.0 mg/kg/injection, schedule: Q03HX008 (ip), vehicle: saline): 114 % of control
T/C (dose: 8.0 mg/kg/injection, schedule: Q03HX016 (ip), vehicle: saline): 94 % of control
T/C (dose: 12.5 mg/kg/injection, schedule: Q01DX009 (ip), vehicle: saline): 164 % of control
T/C (dose: 15.0 mg/kg/injection, schedule: Q01DX009 (ip), vehicle: saline): 157 % of control
T/C (dose: 16.0 mg/kg/injection, schedule: Q01DX001 (sc), vehicle: saline): 106 % of control
T/C (dose: 16.0 mg/kg/injection, schedule: Q01DX009 (sc), vehicle: saline): 106 % of control
T/C (dose: 30.0 mg/kg/injection, schedule: Q01DX009 (ip), vehicle: saline): 208 % of control
T/C (dose: 32.0 mg/kg/injection, schedule: Q01DX001 (oral), vehicle: saline): 113 % of control
T/C (dose: 32.0 mg/kg/injection, schedule: Q01DX001 (sc), vehicle: saline): 98 % of control
T/C (dose: 32.0 mg/kg/injection, schedule: Q01DX009 (ip), vehicle: saline): 102 % of control
T/C (dose: 32.0 mg/kg/injection, schedule: Q01DX009 (oral), vehicle: saline): 153 % of control
T/C (dose: 32.0 mg/kg/injection, schedule: Q04DX003 (ip), vehicle: saline): 165 % of control
T/C [1]: 111 % of control
T/C (dose: 60.0 mg/kg/injection, schedule: Q01DX009 (ip), vehicle: saline): 92 % of control
T/C (dose: 64.0 mg/kg/injection, schedule: Q01DX001 (oral), vehicle: saline): 123 % of control
T/C (dose: 64.0 mg/kg/injection, schedule: Q01DX001 (sc), vehicle: saline): 113 % of control
T/C (dose: 64.0 mg/kg/injection, schedule: Q01DX009 (oral), vehicle: saline): 165 % of control
T/C (dose: 64.0 mg/kg/injection, schedule: Q01DX009 (sc), vehicle: saline): 160 % of control
T/C (dose: 100.0 mg/kg/injection, schedule: Q01DX001 (ip), vehicle: saline): 176 % of control
T/C (dose: 120.0 mg/kg/injection, schedule: Q01DX001 (ip), vehicle: saline): 182 % of control
T/C (dose: 128.0 mg/kg/injection, schedule: Q01DX001 (sc), vehicle: saline): 116 % of control
T/C (dose: 180.0 mg/kg/injection, schedule: Q01DX001 (ip), vehicle: saline): 168 % of control
T/C (dose: 200.0 mg/kg/injection, schedule: Q01DX001 (ip), vehicle: saline): 90 % of control
T/C (dose: 256.0 mg/kg/injection, schedule: Q01DX001 (sc), vehicle: saline): 151 % of control

CCOC(=O)C/C(=N\NC(=O)c1ccccc1O)C(=O)OCC
T/C [2]: 101 % of control
T/C [3]: 107 % of control
T/C [4]: 102 % of control
T/C (dose: 400.0 mg/kg/injection, schedule: Q01DX009 (ip), vehicle: Klucel (hydroxypropylcellulose) (HPC)): 101 % of control

O=c1nc2n(O)cccc-2c(=O)[nH]1
T/C [2]: 96 % of control
T/C [3]: 100 % of control
T/C [5]: 96 % of control
T/C [4]: 101 % of control
T/C (dose: 200.0 mg/kg/injection, schedule: Q04DX003 (ip), vehicle: Klucel (hydroxypropylcellulose) (HPC)): 102 % of control

COC1=C(CNc2ncnc3nc[nH]c23)CC=CC1
T/C [6]: 95 % of control
T/C [7]: 97 % of control
T/C (dose: 400.0 mg/kg/injection, schedule: Q01DX009 (ip), vehicle: saline): 100 % of control

CC(C)(C)C(=O)CC(=O)C(C)(C)C.CC(C)(C)C(=O)CC(=O)C(C)(C)C.[Zn]
T/C [8]: 97 % of control
T/C (dose: 200.0 mg/kg/injection, schedule: Q04DX003 (ip), vehicle: saline with Tween-80): 95 % of control

C1=NC(c2ccccc2)=CN(C2CCCCCCC2)C1(c1ccccc1)C1CCCCCCC1 (configuration not stated)
T/C (dose: 50.0 mg/kg/injection, schedule: Q04DX002 (ip), vehicle: saline): 99 % of control
T/C [9]: 95 % of control
T/C (dose: 100.0 mg/kg/injection, schedule: Q04DX002 (ip), vehicle: saline): 99 % of control
T/C [10]: 92 % of control
T/C [11]: 92 % of control

N#CC(C#N)=Cc1ccc(Cl)cc1
T/C (dose: 50.0 mg/kg/injection, schedule: Q01DX001 (ip), vehicle: other): 105 % of control
T/C (dose: 100.0 mg/kg/injection, schedule: Q01DX001 (ip), vehicle: other): 102 % of control
T/C (dose: 200.0 mg/kg/injection, schedule: Q01DX001 (ip), vehicle: other): 113 % of control

O=C1CC2CC(=O)CC2C1 (configuration not stated)
T/C (dose: 100.0 mg/kg/injection, schedule: Q01DX001 (ip), vehicle: Klucel (hydroxypropylcellulose) (HPC)): 104 % of control
T/C (dose: 100.0 mg/kg/injection, schedule: Q04DX003 (ip), vehicle: saline): 105 % of control
T/C (dose: 200.0 mg/kg/injection, schedule: Q01DX001 (ip), vehicle: Klucel (hydroxypropylcellulose) (HPC)): 97 % of control
T/C [7]: 90 % of control
T/C (dose: 200.0 mg/kg/injection, schedule: Q04DX003 (ip), vehicle: saline): 105 % of control
T/C (dose: 400.0 mg/kg/injection, schedule: Q01DX001 (ip), vehicle: Klucel (hydroxypropylcellulose) (HPC)): 98 % of control
T/C (dose: 400.0 mg/kg/injection, schedule: Q04DX003 (ip), vehicle: saline): 94 % of control

CCN(CC)CCOC(=O)c1cccc(N)c1
T/C [1]: 92 % of control
T/C [6]: 111 % of control
T/C [7]: 103 % of control

NC(=S)Nc1cccc(Cl)c1
T/C (dose: 25.0 mg/kg/injection, schedule: Q04DX003 (ip), vehicle: Klucel (hydroxypropylcellulose) (HPC)): 96 % of control
T/C (dose: 50.0 mg/kg/injection, schedule: Q04DX003 (ip), vehicle: Klucel (hydroxypropylcellulose) (HPC)): 100 % of control
T/C [5]: 106 % of control

O=C1CCC(=O)N1c1ccccc1
T/C [9]: 96 % of control
T/C [10]: 92 % of control
T/C [11]: 92 % of control

Cc1cccc(C)c1N=C=S
T/C (dose: 25.0 mg/kg/injection, schedule: Q04DX003 (ip), vehicle: saline with Tween-80): 100 % of control
T/C (dose: 50.0 mg/kg/injection, schedule: Q04DX003 (ip), vehicle: saline with Tween-80): 96 % of control
T/C [8]: 98 % of control

CCCCCCCCCCCCOCCCCCCCCCCCC
T/C (dose: 100.0 mg/kg/injection, schedule: Q01DX009 (sc), vehicle: olive oil, sesame oil, peanut oil): 104 % of control
T/C (dose: 100.0 mg/kg/injection, schedule: Q04DX003 (sc), vehicle: olive oil, sesame oil, peanut oil): 114 % of control
T/C (dose: 200.0 mg/kg/injection, schedule: Q01DX009 (sc), vehicle: olive oil, sesame oil, peanut oil): 100 % of control
T/C (dose: 200.0 mg/kg/injection, schedule: Q04DX003 (sc), vehicle: olive oil, sesame oil, peanut oil): 106 % of control
T/C (dose: 400.0 mg/kg/injection, schedule: Q01DX009 (sc), vehicle: olive oil, sesame oil, peanut oil): 102 % of control
T/C (dose: 400.0 mg/kg/injection, schedule: Q04DX003 (sc), vehicle: olive oil, sesame oil, peanut oil): 104 % of control

C=C(C)C1(CC)C(=O)NC(=O)N(C)C1=O (configuration not stated)
T/C (dose: 75.0 mg/kg/injection, schedule: Q01DX001 (ip), vehicle: carboxymethylcellulose (CMC)): 102 % of control
T/C (dose: 75.0 mg/kg/injection, schedule: Q01DX001 (ip), vehicle: saline): 97 % of control
T/C (dose: 150.0 mg/kg/injection, schedule: Q01DX001 (ip), vehicle: carboxymethylcellulose (CMC)): 105 % of control
T/C (dose: 150.0 mg/kg/injection, schedule: Q01DX001 (ip), vehicle: saline): 102 % of control
T/C (dose: 300.0 mg/kg/injection, schedule: Q01DX001 (ip), vehicle: carboxymethylcellulose (CMC)): 103 % of control
T/C (dose: 300.0 mg/kg/injection, schedule: Q01DX001 (ip), vehicle: saline): 108 % of control
